In patent US11040975B2, “Carbocyclic nucleoside reverse transcriptase inhibitors” (Merck Sharp & Dohme Corp., priority 2017, dated 2021):

What follows are compounds tested against T1, HIV-1 RT enzyme (Human immunodeficiency virus type 1 group M subtype B, UniProt P04585) (assay: RT Polymerase Assay). Conditions: not given.
T1 construct: Full-length wild-type and 2 mutant RT proteins were expressed in Escherichia coli BL21(DE3) cells and purified; made in house; host or cells: Escherichia coli BL21(DE3)
Type: biochemical
Text: The compounds of Formula I, and pharmaceutically acceptable salts thereof, are HIV reverse transcriptase inhibitors. The compounds are useful for inhibiting HIV reverse transcriptase and for inhibiting HIV replication in vitro and in vivo. More particularly, the compounds of Formula I inhibit the polymerase function of HIV-1 reverse transcriptase. The testing of compounds of the Examples of the invention in the assay set forth in the RT Polymerase Assay below, illustrates the ability of compounds of the invention to inhibit the RNA-dependent DNA polymerase activity of HIV-1 reverse transcriptase. The compounds of Formula I may also be useful agents against HIV-2.
Full-length wild-type and 2 mutant RT proteins were expressed in Escherichia coli BL21(DE3) cells and purified. Briefly, the heterodimeric nucleic acid substrate used in the HIV-1 RT polymerase reactions was generated by annealing biotinylated DNA primer to a 500 nucleotide RNA template. The HIV-1 RT enzyme (final concentration of 50 pM) was combined with an inhibitor compound or DMSO (10% DMSO in the final reaction mixture) in assay buffer (62.5 mM Tris-HCl, pH 7.8, 1.25 mM dithiothreitol, 7.5 mM MgCl2, 100 mM KCl, 0.03% CHAPS, 0.125 mM EGTA). This mixture was pre-incubated for 30 minutes at room temperature in microtiter plates. The polymerization reaction was initiated by the addition of template/primer substrate (final concentration: 16.6 nM) and dNTPs (final concentration: 2 μM dCTP, dGTP, dATP, and 66.6 nM Ru-dUTP). After 90 min of incubation at 37° C., reactions were quenched by the addition of EDTA (25 mM). The resulting mixture was incubated for an additional 5 minutes at room temperature followed by transferring the solution (50 μL) to blocked avidin plate from Meso Scale Discovery (MSD). The mixtures were incubated at room temperature for 60 min prior to the quantification of the reaction product via an ECL 6000 imager instrument.

`C#CC1(COP(=O)(O)OP(=O)(O)OP(=O)(O)O)CC(n2cnc3c(=O)[nH]c(N)nc32)CC1O` (racemic) [Example (+/−) 47, ((1S,2S,4R)-4-(2-amino-6-oxo-1,6-dihydro-9H-purin-9-yl)-1-ethynyl-2-hydroxycyclopentyl)methyl tetrahydrogen triphosphate and ((1R,2R,4S)-4-(2-amino-6-oxo-1,6-dihydro-9H-purin-9-yl)-1-ethynyl-2-hydroxycyclopentyl)methyl tetrahydrogen triphosphate] and `N#CC1(COP(=O)(O)OP(=O)(O)OP(=O)(O)O)CC(n2cnc3c(=O)[nH]c(N)nc32)CC1O` (racemic) [Example (+/−) 75, ((1S,2S,4R)-4-(2-amino-6-oxo-1,6-dihydro-9H-purin-9-yl)-1-cyano-2-hydroxycyclopentyl)methyl tetrahydrogen triphosphate and ((1R,2R,4S)-4-(2-amino-6-oxo-1,6-dihydro-9H-purin-9-yl)-1-cyano-2-hydroxycyclopentyl)methyl tetrahydrogen triphosphate] are within 1.5-fold of each other in IC50: 324000 pM for the first, 444000 pM for the second.

First: C#CC1(COP(=O)(O)OP(=O)(O)OP(=O)(O)O)CC(n2cc(C)c(=O)[nH]c2=O)CC1O (racemic) [Example (+/−) 48, ((1S,2S,4R)-1-ethynyl-2-hydroxy-4-(5-methyl-2,4-dioxo-3,4-dihydropyrimidin-1(2H)-yl)cyclopentyl)methyl tetrahydrogen triphosphate and ((1R,2R,4S)-1-ethynyl-2-hydroxy-4-(5-methyl-2,4-dioxo-3,4-dihydropyrimidin-1(2H)-yl)cyclopentyl)methyl tetrahydrogen triphosphate]
Second: Cc1cn(C2CC(O)C(C#N)(COP(=O)(O)OP(=O)(O)OP(=O)(O)O)C2)c(=O)[nH]c1=O (racemic) [Example (+/−) 76, ((1S,2S,4R)-1-cyano-2-hydroxy-4-(5-methyl-2,4-dioxo-3,4-dihydropyrimidin-1(2H)-yl)cyclopentyl)methyl tetrahydrogen triphosphate and ((1R,2R,4S)-1-cyano-2-hydroxy-4-(5-methyl-2,4-dioxo-3,4-dihydropyrimidin-1(2H)-yl)cyclopentyl)methyl tetrahydrogen triphosphate]
The IC50 of the first is 4.6-fold lower: 114000 pM for the first, 523000 pM for the second. The first is the more potent here.

`C#CC1(COP(=O)(O)OP(=O)(O)OP(=O)(O)O)CC(n2ccc(N)nc2=O)CC1O` (racemic) [Example (+/−) 49, ((1S,2S,4R)-4-(4-amino-2-oxopyrimidin-1(2H)-yl)-1-ethynyl-2-hydroxycyclopentyl)methyl tetrahydrogen triphosphate and ((1R,2R,4S)-4-(4-amino-2-oxopyrimidin-1(2H)-yl)-1-ethynyl-2-hydroxycyclopentyl)methyl tetrahydrogen triphosphate] was tested, and the IC50 was greater than 1e+08 pM.

Same assay, conditions: HIV-1 RT 50 pM; 90 min at 37° C.; triphosphates tested; read-out: dNTP IC50

First: ((1S,2S,4R)-4-(2,4-dichloro-7H-pyrrolo[2,3-d]pyrimidin-7-yl)-1-ethynyl-2-hydroxycyclopentyl)methyl tetrahydrogen triphosphate and ((1R,2R,4S)-4-(2,4-dichloro-7H-pyrrolo[2,3-d]pyrimidin-7-yl)-1-ethynyl-2-hydroxycyclopentyl)methyl tetrahydrogen triphosphate [Example (+/−) 45]
Second: ((1S,2S,4R)-4-(2,6-dichloro-9H-purin-9-yl)-1-ethynyl-2-hydroxycyclopentyl)methyl tetrahydrogen triphosphate and ((1R,2R,4S)-4-(2,6-dichloro-9H-purin-9-yl)-1-ethynyl-2-hydroxycyclopentyl)methyl tetrahydrogen triphosphate [Example (+/−) 43]
The IC50 of the first is lower: 3.38e+07 pM for the first, greater than 1e+08 pM for the second. The first is the more potent here.

“((1S,2S,4R)-4-(2-amino-6-chloro-9H-purin-9-yl)-1-ethynyl-2-hydroxycyclopentyl)methyl tetrahydrogen triphosphate and ((1R,2R,4S)-4-(2-amino-6-chloro-9H-purin-9-yl)-1-ethynyl-2-hydroxycyclopentyl)methyl tetrahydrogen triphosphate [Example (+/−) 42]” and “((1S,2S,4R)-4-(4-amino-2-chloro-7H-pyrrolo[2,3-d]pyrimidin-7-yl)-1-ethynyl-2-hydroxycyclopentyl)methyl tetrahydrogen triphosphate and ((1R,2R,4S)-4-(4-amino-2-chloro-7H-pyrrolo[2,3-d]pyrimidin-7-yl)-1-ethynyl-2-hydroxycyclopentyl)methyl tetrahydrogen triphosphate [Example (+/−) 46]” are within 1.5-fold of each other in IC50: 1.32e+07 pM for the first, 1.39e+07 pM for the second.

First: ((1S,2S,4R)-4-(6-amino-2-chloro-9H-purin-9-yl)-1-ethynyl-2-hydroxycyclopentyl)methyl tetrahydrogen triphosphate and ((1R,2R,4S)-4-(6-amino-2-chloro-9H-purin-9-yl)-1-ethynyl-2-hydroxycyclopentyl)methyl tetrahydrogen triphosphate [Example (+/−) 44]
Second: ((1S,2S,4R)-4-(6-amino-2-chloro-9H-purin-9-yl)-1-ethynyl-2-hydroxycyclopentyl)methyl tetrahydrogen triphosphate or ((1R,2R,4S)-4-(6-amino-2-chloro-9H-purin-9-yl)-1-ethynyl-2-hydroxycyclopentyl)methyl tetrahydrogen triphosphate [Example 44B]
The IC50 of the first is 2.2-fold higher: 2.02e+07 pM for the first, 9.32e+06 pM for the second. The second is the more potent here.

First: ((1S,2S,4R)-4-(6-amino-2-fluoro-9H-purin-9-yl)-1-ethynyl-2-hydroxycyclopentyl)methyl tetrahydrogen triphosphate and ((1R,2R,4S)-4-(6-amino-2-fluoro-9H-purin-9-yl)-1-ethynyl-2-hydroxycyclopentyl)methyl tetrahydrogen triphosphate [Example (+/−) 41]
Second: ((1S,2S,4R)-4-(6-chloro-2-fluoro-9H-purin-9-yl)-1-ethynyl-2-hydroxycyclopentyl)methyl tetrahydrogen triphosphate and ((1R,2R,4S)-4-(6-chloro-2-fluoro-9H-purin-9-yl)-1-ethynyl-2-hydroxycyclopentyl)methyl tetrahydrogen triphosphate [Example (+/−) 40]
The IC50 of the first is lower: 3.46e+06 pM for the first, greater than 1e+08 pM for the second. The first is the more potent here.
